The values below come from US8372617B2, “β-galactoside-α2,6-sialyltransferase, a gene encoding thereof, and a method for enhancing enzyme activity” (Japan Tobacco Inc., priority 2007, dated 2013).

For series [1], the system named is recombinant β-galactoside-α2,6-sialyltransferase N1C0. Kind of series: Glycosyl acceptor substrate specificity, monosaccharides and disaccharides. The format is biochemical, Photobacterium leiognathi. Conditions: for % (nmol), relative activity toward acceptor substrate: sialyltransferase activity toward lactose set to 100; for transfer of sialic acid to acceptor substrate: 11 monosaccharides and disaccharides tested. An excerpt:
The purified enzyme prepared in Example 3 for JT-SHIZ-145-derived recombinant β-galactoside-α2,6-sialyltransferase N1C0 (SEQ ID NO: 4) was used to cause sialic acid transfer reaction in various monosaccharides/disaccharides as glycosyl acceptor substrates. The reaction was accomplished as described in J. Biochem., 120, 104-110 (1996). The monosaccharides used as glycosyl acceptor substrates were the following 8 types: methyl-α-D-galactopyranoside (Gal-α-OMe), methyl-β-D-galactopyranoside (Gal-β-OMe), methyl-α-D-glucopyranoside (Glc-α-OMe), methyl-β-D-glucopyranoside (Glc-β-OMe), methyl-α-D-mannopyranoside (Man-α-OMe), methyl-β-D-mannopyranoside (Man-β-OMe), N-acetylgalactosamine (GalNAc), and N-acetylglucosamine (GlcNAc). The disaccharides used were the following 3 types: lactose (Gal-β1,4-Glc), N-acetyllactosamine (Gal-β1,4-GlcNAc) and Gal-β1,3-GalNAc.
It should be noted that the relative activity toward each acceptor substrate was calculated assuming that the sialyltransferase activity toward lactose was set to 100.

For series [2] the test system is unchanged. Here is the method: Using a crude enzyme solution, enzyme activity was measured in a reaction solution adjusted to contain calcium chloride and/or EDTA at a final concentration of 10 mM for calcium ion and 50 mM for EDTA.
Series [3] has the same test system. Kind of series: Effect of addition of various salts (complex ions, Na+/K+) on enzyme activity. The format is biochemical, Photobacterium leiognathi. Conditions: anion concentration 0.1 M in Tris-HCl, 30° C.; compared to absence of addition. Here is the method: Aqueous solutions were prepared for potassium nitrate (KNO3), sodium nitrate (NaNO3), potassium sulfate (K2SO4), sodium sulfate (Na2SO4), sodium dihydrogen phosphate (NaH2PO4), disodium hydrogen phosphate (Na2HPO4) and potassium phosphate (KH2PO4+K2HPO4 (abbreviated as KPB)). These aqueous solutions were each adjusted with Tris-HCl buffer to give an anion concentration of 0.1 M in the reaction solution at 30° C., and used for enzyme activity measurement.
It should be noted that enzyme activity in the reaction solution upon addition of each solution was evaluated as relative activity, assuming that the enzyme activity in the absence of addition (i.e., in Tris-HCl alone) was set to 1.

Series [4] has the same test system. Briefly: Optimum pH for enzyme activity. The format is biochemical, Photobacterium leiognathi. To be noted: phosphate buffer, 30° C. Here is the method:
Acetate buffer (pH 4-5), cacodylate buffer (pH 5-6), Bis-Tris buffer (pH 6-7), phosphate buffer (pH 6-9.5), Tris-HCl buffer (pH 7-9.5), TAPS buffer (pH 8-9), CHES buffer (pH 9-10) and CAPS buffer (pH 10-11) were prepared and used for enzyme activity measurement at 30° C. at various pH values.
It should be noted that enzyme activity at each pH was evaluated as relative activity, assuming that the enzyme activity at pH 8.0 in phosphate buffer was set to 1.

For series [5], the system named is β-galactoside-α2,6-sialyltransferase. Kind of series: Binding mode of sialic acid: reaction with PA-lactose and CMP-NeuAc, HPLC analysis. It counts as biochemical, Photobacterium leiognathi. Conditions: pyridylaminated lactose as glycosyl acceptor. The protocol: To determine the binding mode of sialic acid, a reaction using PA-lactose as a substrate was then performed. The enzymatic reaction was accomplished by using the resulting crude enzyme solution and a pyridylaminated sugar chain as a glycosyl acceptor substrate. The pyridylaminated sugar chain used for analysis was pyridylaminated lactose (Galβ1-4Glc-PA, Takara Bio Inc., Japan). To 5 μl of the crude enzyme solution, 1.5 μl of 5 mM CMP-NeuAc and 1.5 μl of 10 pmol/μl glycosyl acceptor substrate were added and reacted at 25° C. for 18 hours. After completion of the reaction, the reaction solution was treated at 100° C. for 2 minutes to inactivate the enzyme, followed by HPLC to analyze the reaction product. The HPLC system used was Shimadzu LC10A (Shimadzu Corporation, Japan) and the analytical column used was Takara PALPAK Type R (Takara Bio Inc., Japan). […] The analysis was performed under the following conditions: flow rate: 1 ml/min, column temperature: 40° C., detection: fluorescence (Ex: 320 nm, Em: 400 nm).
Further analysis was performed to examine whether sialyltransferase expressed by E. coli cells transformed in (5) above with SHIZ145-N1C0/pTrc99A had β-galactoside-α2,6-sialyltransferase activity. […] As a result, PA-6′-sialyllactose (Neu5Acα2-6Galβ1-4Glc-PA) was detected, as in the case of Example 1.

For series [6], the system named is β-galactoside-α2,6-sialyltransferase from the strain JT-SHIZ-145. Briefly: Sialyltransferase activity measurement of crude enzyme solution from E. coli transformed with SHIZ145-N1C0/pTrc99A (14C CMP-NeuAc donor, lactose acceptor). It counts as biochemical, Photobacterium leiognathi. Conditions: insert +, 120 mM lactose, 0.5 M NaCl, 30° C. for 30 minutes. Here is the method: Among the two expression vectors obtained above, SHIZ145-N1C0/pTrc99A was used to perform an induction experiment of protein expression. A single colony of E. coli TB1 having the expression vector pTrc99A carrying the SHIZ145-N1C0 clone (SEQ ID NO: 3) was inoculated into LB medium (6 ml) containing an antibiotic, ampicillin (final concentration […]), and pre-cultured at 30° C. to about A600=0.5, followed by addition of IPTG (isopropyl-β-D(−)-thiogalactopyranoside, Wako Pure Chemical Industries, Ltd., Japan) at a final concentration of 1 mM to initiate expression induction. After culturing overnight with shaking at 30° C., the cells in 2 ml culture solution were collected by centrifugation. These cells were suspended in 400 μl of 20 mM Bis-Tris buffer (pH 6.0) containing 0.336% Triton X-100, and ultrasonically homogenized under ice cooling. The resulting homogenate was defined as a crude enzyme solution and provided for sialyltransferase activity measurement. Measurement was accomplished as described in J. Biochem., 120, 104-110 (1996) (hereby incorporated by reference in its entirety). […] Radioactivity was measured for the reaction product, i.e., sialyllactose contained in the eluate from the column to calculate the enzyme activity.

The test system of series [7] is recombinant β-galactoside-α2,6-sialyltransferase N1C0. Briefly: Optimum temperature for enzyme activity. The format is biochemical, Photobacterium leiognathi. Conditions: phosphate buffer (pH 8.0), 10° C. up to 50° C. The protocol: The enzyme activity was measured at an interval of 5° C. starting from 10° C. up to 50° C. using phosphate buffer (pH 8.0).
As a result, as shown in FIG. 2-2, the enzyme activity was maximum at 30° C. It should be noted that enzyme activity at each temperature was evaluated as relative activity, assuming that the enzyme activity at 30° C. was set to 100.

In the case of `CO[C@H]1O[C@H](CO)[C@H](O)[C@H](O)[C@H]1O` [Gal-α-OMe, methyl-α-D-galactopyranoside], the “% (nmol), relative activity toward acceptor substrate” value in series [1] was determined as 2%.
With `CC(=O)N[C@H]1C(O)O[C@H](CO)[C@H](O)[C@@H]1O[C@@H]1O[C@H](CO)[C@H](O)[C@H](O)[C@H]1O` (stereo partly drawn) [Gal-β1,3-GalNAc], in series [1], the “transfer of sialic acid to acceptor substrate” value (“transfer of sialic acid” below) is reported as “efficiently transferred” and the “% (nmol), relative activity toward acceptor substrate” value is on record as 71%.
For `OC[C@H]1O[C@@H](O[C@H]2[C@H](O)[C@@H](O)C(O)O[C@@H]2CO)[C@H](O)[C@@H](O)[C@H]1O` (stereo partly drawn) [Gal-β1,4-Glc, lactose] the same measures were “efficiently transferred” and 100%.
For the molecule `CC(=O)N[C@H]1C(O)O[C@H](CO)[C@@H](O[C@@H]2O[C@H](CO)[C@H](O)[C@H](O)[C@H]2O)[C@@H]1O` (stereo partly drawn) [Gal-β1,4-GlcNAc, N-acetyllactosamine], in series [1], the “transfer of sialic acid” value was “efficiently transferred” and the “% (nmol), relative activity toward acceptor substrate” value is reported as 205%.
Consider `CO[C@@H]1O[C@H](CO)[C@H](O)[C@H](O)[C@H]1O` [Gal-β-OMe, methyl-β-D-galactopyranoside], for which, in series [1], the “transfer of sialic acid” value is listed as “efficiently transferred” and the “% (nmol), relative activity toward acceptor substrate” value is on record as 59%.
As to `CC(=O)N[C@H]1C(O)O[C@H](CO)[C@H](O)[C@@H]1O` (stereo partly drawn) [GalNAc, N-acetylgalactosamine], in series [1], the “transfer of sialic acid” value is given as “efficiently transferred” and the “% (nmol), relative activity toward acceptor substrate” value is 35%.
On to `CO[C@H]1O[C@H](CO)[C@@H](O)[C@H](O)[C@H]1O` [Glc-α-OMe, methyl-α-D-glucopyranoside], for which, in series [1], the “% (nmol), relative activity toward acceptor substrate” value is listed as 0%.
Take `CO[C@@H]1O[C@H](CO)[C@@H](O)[C@H](O)[C@H]1O` [Glc-β-OMe, methyl-β-D-glucopyranoside]: the “% (nmol), relative activity toward acceptor substrate” value in series [1] was 0%.
Turning to `CC(=O)N[C@H]1C(O)O[C@H](CO)[C@@H](O)[C@@H]1O` (stereo partly drawn) [GlcNAc, N-acetylglucosamine], the “% (nmol), relative activity toward acceptor substrate” value in series [1] is recorded as 6%.
With `CO[C@H]1O[C@H](CO)[C@@H](O)[C@H](O)[C@@H]1O` [Man-α-OMe, methyl-α-D-mannopyranoside], the “% (nmol), relative activity toward acceptor substrate” value in series [1] is on record as 0%.
On the same count and under the same terms, for `CO[C@@H]1O[C@H](CO)[C@@H](O)[C@H](O)[C@@H]1O` [Man-β-OMe, methyl-β-D-mannopyranoside] the value was 0%.
Turning to `[Ca+2].[Cl-].[Cl-]` [calcium ion, calcium chloride], the “enzyme activity with calcium ion together with EDTA” value in series [2] (10 mM calcium ion and 50 mM EDTA) was “almost the same level as in the absence of calcium ion”. Further, the “enzyme activity in the presence of calcium ion” value in series [2] (10 mM calcium ion, compared to absence of calcium ion) was “remarkably increased”.
Regarding `O=P([O-])([O-])O.[Na+].[Na+]` [disodium hydrogen phosphate], the “effect of addition on enzyme activity” value in series [3] was “maximum”.
As to “potassium phosphate (KH2PO4+K2HPO4 (abbreviated as KPB)) [potassium phosphate (KPB)]”, in series [3], the “effect of addition on enzyme activity” value is recorded as “maximum”.

B1: SHIZ145-N1C0: β-galactoside-α2,6-sialyltransferase from strain JT-SHIZ-145 lacking the amino acids of the signal peptide region, expressed in E. coli (protein)
chain: MCNDNQNTVDVVVSTVNDNVIENNTYQVKPIDTPTTFDSYSWIQTCGTPILKDDEKYSLSFDFVAPELDQDEKFCFEFTGDVDGKRYVTQTNLTVVAPTLEVYVDHASLPSLQQLMKIIQQKNEYSQNERFISWGRIRLTEDNAEKLNAHIYPLAGNNTSQELVDAVIDYADSKNRLNLELNTNTGHSFRNIAPILRATSSKNNILISNINLYDDGSAEYVSLYNWKDTDNKSQKLSDSFLVLKDYLNGISSEKPNGIYSIYNWHQLYHSSYYFLRKDYLTVETKLHDLREYLGGSLKQMSWDTFSQLSKGDKELFLNIVGFDQEKLQQEYQQSELPNFVFTGTTTWAGGETKEYYAQQQVNVVNNAINETSPYYLGREHDLFFKGHPRGGIINDIILGSFNNMIDIPAKVSFEVLMMTGMLPDTVGGIASSLYFSIPAEKVSFIVFTSSDTITDREDALKSPLVQVMMTLGIVKEKDVLFWC
Consider B1, for which the “pH at which the enzyme activity reached maximum” value in series [4] came out at 8.0. The “PA-6′-sialyllactose (Neu5Acα2-6Galβ1-4Glc-PA) product” value in series [5] was “detected”. The “NeuAc transferred (cpm)” value in series [6] is reported as 8326 cpm. Further, the “temperature at which the enzyme activity was maximum” value in series [7] was determined as 30 °C.
